Common to all, as to experiment: NCI-60 cell line screen, 48 h
In assay [1] the test system is A498 renal.
Assay [2] deals with ACHN renal.
The test system of assay [3] is HOP-62 NSCLC.
Assay [4] concerns HOP-92 NSCLC.
Assay [5] relates to HT29 colon.
Assay [6] has as its system LOX IMVI melanoma.
In assay [7] the test system is MALME-3M melanoma.
For assay [8], the system named is MDA-MB-435.
In assay [9] the test system is SW-620 colon.
For assay [10], the system named is T-47D breast.

Each structure is given as a SMILES string.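 Interpolation was linear, between the two tested concentrations surrounding the appropriate level; five concentrations were tested over 48 hours in 96-well plates. GI50: concentration for 50% inhibition of growth. TGI denotes the concentration required for complete inhibition of growth.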

GI50 and TGI data for 16 compounds are collected here from PubChem BioAssay (NCI).

Regarding `O=C1C(SCCO)=C(SCCO)C(=O)N1c1ccc(-c2ccccc2)cc1`, the GI50 was 18 µM in [1]; 1.68 µM in assay [2]; 4.88 µM in assay [3]; 1.87 µM in [4]; 1.02 µM in assay [5]; 2.7 µM in assay [6]. Besides, the GI50 in assay [7] was 1.61 µM; in [8], 4.98 µM; in assay [9], 1.45 µM; in [10], 1.71 µM. The TGI in [1] was 37.9 µM; in assay [2], 3.11 µM; in assay [3], 10.6 µM; in assay [4], 7.24 µM; in assay [5], 3.5 µM; in assay [6], 8.44 µM. Moreover, the TGI in assay [7] was 5.31 µM; in assay [8], 12.8 µM; in assay [9] it was 3.94 µM; in assay [10], 7.43 µM.
In the case of `CCC[CH2][Sn]1([CH2]CCC)[O]C2C(CO)OC(n3ccc(N)nc3=O)C2[O]1` (configuration not stated), the GI50 was 0.271 µM in [1]; 1.35 µM in assay [2]; 2.24 µM in assay [3]; 0.361 µM in [4]; 0.384 µM in [6]; 0.701 µM in assay [7]. Also, the figures for the GI50 in [8] and in assay [10] were 1.41 µM and 0.383 µM, respectively. Also, the TGI in assay [1] worked out at 1.17 µM; in assay [2], 2.67 µM; in assay [3] it was 3.99 µM; in [4], 1.98 µM; in [6], 1.65 µM; in assay [7], 2.15 µM. Besides, the results for the TGI in [8] and in assay [10] were 2.88 µM and 2.49 µM, respectively.
For `CC(C)(C)c1[nH]nc2c1C(c1cc3ccccc3[nH]c1=O)Nc1cc(C(=O)OCc3ccccc3)ccc1N2` (configuration not stated), the GI50 in assay [1] was 3.73 µM; in [2], 4.25 µM; in assay [3], 6.37 µM; in assay [4], 1.35 µM; in [5], 2.75 µM; in [6], 3.35 µM. Also, the GI50 was 2.49 µM in [7], 2.95 µM in assay [8], 3.53 µM in assay [9] and 4.08 µM in [10]. Moreover, the TGI in [1] was 81.9 µM; in assay [2], > 100 µM; in assay [3], > 100 µM; in [4], 8.34 µM; in assay [5], 6.52 µM; in assay [6], > 100 µM. Further, the TGI in assay [7] is 7.47 µM; in assay [8], > 100 µM; in [9], > 100 µM; in [10], > 100 µM.
`Nc1ncnc2c1c(-c1ccc(Oc3ccccc3)cc1)nn2C[C@@H]1SSC[C@H]1O`: the GI50 in assay [1] is 2.18 µM; in assay [2], 2.02 µM; in assay [3], 0.797 µM; in assay [4], 1.75 µM; in [5], 0.732 µM; in assay [6], 0.272 µM. The values for the GI50 in assay [7], in [9] and in [10] were 1.25 µM, 17.3 µM and 1.09 µM, respectively. For the same compound, the TGI in assay [1] worked out at 5.53 µM; in [2], 10.5 µM; in [3], 6.74 µM; in assay [4] it was 5.87 µM; in assay [5] it was 7.98 µM; in [6] it was 1.74 µM. Besides, the values for the TGI in [7], in assay [9] and in assay [10] were 6.45 µM, 55 µM and 10.3 µM, respectively.
For the compound `CC1=C(C(=O)N(C)c2ccc(Cl)c(C(=O)OC(C)C)c2)SCCO1`, the TGI in assay [1], in assay [2], in [4], in assay [5], in [6] and in [7] was > 100 µM throughout. Besides, the TGI in assay [8], in assay [9] and in [10] was > 100 µM throughout.
`Cc1[nH]c2ccc(F)cc2c1-c1nc2c3cccnc3c3ncccc3c2[nH]1`: the GI50 in assay [1] is 0.944 µM; in assay [2] it was 0.327 µM; in [3], 0.305 µM; in assay [5], 0.479 µM; in assay [7], 0.283 µM; in assay [8], 0.426 µM. In addition, the GI50 is 0.374 µM in [9] and 0.357 µM in [10]. The TGI in [1], in assay [2], in assay [3], in assay [5], in assay [7] and in assay [8] was > 100 µM in each case. Also, the TGI in [9] and in [10] was > 100 µM throughout.
Turning to `O=S(=O)(c1cccc2c(I)cccc12)N1CCCNCC1`, the GI50 is 14.2 µM in assay [1]; 18.1 µM in assay [2]; 16.5 µM in [3]; 14.1 µM in assay [4]; 20.8 µM in assay [5]; 18.3 µM in [6]. The GI50 in [8] is 17.7 µM; in [9], 17.1 µM; in [10] it was 25.4 µM. For the same compound, the TGI in [1] was found to be 30.2 µM; in assay [2] it was 33.6 µM; in assay [3], 34.4 µM; in assay [4] it was 32.5 µM; in assay [5], 55.3 µM; in [6], 36.6 µM. For the same compound, the values for the TGI in assay [8], in [9] and in [10] were 35.6 µM, 51.4 µM and 64.9 µM, respectively.
With `COc1ccc(C(=O)/C=C/c2cccc(Nc3ccnc4cc(Cl)ccc34)c2)cc1`, the GI50 is 3 µM in assay [1]; 1.44 µM in [3]; 1.09 µM in assay [4]; 1.64 µM in assay [5]; 1.58 µM in assay [6]; 1.79 µM in assay [7]. For the same compound, the GI50 in assay [8] was 2.13 µM; in assay [9], 1.98 µM; in assay [10], 0.655 µM. The TGI in [1] is 55.3 µM; in assay [3], 3.99 µM; in [4], 7.08 µM; in assay [5], > 100 µM; in assay [6], 11.7 µM; in assay [7], 6.3 µM. Further, the TGI was > 100 µM in assay [8], 20 µM in assay [9] and 4.64 µM in [10].
As to `Cn1cc(-c2csc(-c3cn(CCCN4CCCCC4)c4ccccc34)n2)c2cccnc21`, the GI50 was 13.7 µM in [1]; 1.63 µM in assay [2]; 13.3 µM in assay [4]; 1.89 µM in assay [5]; 1.66 µM in assay [6]; 1.61 µM in assay [7]. The values for the GI50 in [8], in assay [9] and in assay [10] were 1.87 µM, 1.95 µM and 17.4 µM, respectively. Also, the TGI in [1] came out at 28.7 µM; in assay [2], 3.01 µM; in assay [4], 35.2 µM; in [5], 3.62 µM; in assay [6] it was 3.11 µM; in assay [7] it was 3.19 µM. The TGI in assay [8] stood at 3.47 µM; in [9] it was 3.74 µM; in assay [10], 51.3 µM.
Consider `O=C1c2ccc3c4c(ccc(c24)C(=O)N1CCCNCc1ccccc1Cl)C(=O)N(CCCNCc1ccccc1Cl)C3=O`, for which the GI50 in assay [1] is 0.712 µM; in assay [2] it was 0.206 µM; in assay [3], 0.277 µM; in assay [4] it was 0.728 µM; in [5], 0.123 µM; in assay [7], 0.315 µM. For the same compound, the GI50 in assay [8] was 0.12 µM; in assay [9] it was 0.128 µM; in assay [10], 0.787 µM. Besides, the TGI in assay [1] was 1.43 µM; in assay [2] it was 0.859 µM; in assay [3] it was 1.02 µM; in assay [4] it was 2.37 µM; in assay [5] it was 0.335 µM; in assay [7] it was 1.05 µM. The TGI in assay [8] was 0.332 µM; in assay [9] it was 0.361 µM; in assay [10] it was 2.17 µM.
Take `COc1ccc(N(/C=C/C(=O)C(F)(F)F)CC(=O)c2ccc(F)cc2)cc1`: the GI50 in assay [1] is 14.2 µM; in assay [2] it was 16.3 µM; in assay [3] it was 20 µM; in assay [5] it was 46.2 µM; in assay [6], 16.4 µM; in assay [7], 16.5 µM. Further, the GI50 was 19.9 µM in assay [8], 35 µM in [9] and 32.1 µM in [10]. The TGI in assay [1] was 37.8 µM; in assay [2], 41.2 µM; in [3], 44.9 µM; in assay [5], > 100 µM; in assay [6], 39.1 µM; in [7], 41.4 µM. The TGI in [8] was 52.2 µM; in [9], > 100 µM; in [10], > 100 µM.
As to `CC(=O)[O][Sn]([CH2]c1ccccc1)([CH2]c1ccccc1)[CH2]c1ccccc1`, the GI50 was > 4.95 µM in assay [1]; > 10 µM in assay [2]; > 5.55 µM in [3]; 4.72 µM in [5]; 3.79 µM in assay [6]; > 4.38 µM in [7]. Further, the GI50 in [8] is > 7 µM; in assay [9], > 8.82 µM; in assay [10], > 10 µM. The TGI was 9.94 µM in [1]; > 10 µM in assay [2]; > 6.75 µM in [3]; > 8.87 µM in [5]; > 4.64 µM in [6]; > 6.05 µM in assay [7]. Besides, the TGI in assay [8], in [9] and in [10] was > 10 µM each time.
Consider `c1ccc2[nH]c(-c3cc(-c4ccc5c(c4)OCO5)n[nH]3)nc2c1`, for which the GI50 in assay [1] was 1.7 µM; in assay [2] it was 4.33 µM; in assay [3], 8.46 µM; in assay [5], 3.66 µM; in assay [7], 2.33 µM; in [8], 3.12 µM. The GI50 in assay [9] was 5.87 µM; in assay [10], 3.32 µM. The TGI in assay [1] worked out at 12.8 µM; in [2], 19 µM; in assay [3], 21.8 µM; in assay [5], 15 µM; in [7], 13.2 µM; in assay [8], 15.6 µM. Further, the TGI came to 21.4 µM in [9] and 16.2 µM in assay [10].
In the case of `C=C1CC[C@@H]2[C@](C)(COC(C)=O)[C@H](OC(C)=O)CC[C@@]2(C)[C@@H]1CC(Nc1ccc(S(=O)(=O)Nc2ccc(Cl)nn2)cc1)C1=CCOC1=O` (some centres not stated), the GI50 in [1] was 1.4 µM; in assay [2] it was 1.68 µM; in assay [3], 1.46 µM; in [4] it was 2.7 µM; in [6], 0.295 µM; in assay [7] it was 1.72 µM. Further, the GI50 was 1.4 µM in [8], 1.07 µM in assay [9] and 1.51 µM in assay [10]. Moreover, the TGI worked out at 4.26 µM in assay [1]; 3.32 µM in [2]; 2.99 µM in [3]; 7.89 µM in assay [4]; 1.19 µM in assay [6]; 3.9 µM in assay [7]. Moreover, the TGI was found to be 3.17 µM in [8], 2.8 µM in [9] and 4.25 µM in assay [10].
Consider `O=[N+]([O-])c1ccc(N=Nc2ccc(O)c3ccccc23)cc1`, for which the GI50 is 3.32 µM in [1]; 3.13 µM in [2]; 20.3 µM in assay [3]; 0.281 µM in assay [4]; 13.7 µM in [5]; 2.5 µM in assay [6]. Also, the GI50 in [7] is 12 µM; in [8] it was 5.31 µM; in [9] it was 3.33 µM. Also, the TGI in [1] was 86.8 µM; in [2], > 100 µM; in assay [3] it was > 100 µM; in assay [4] it was 2.94 µM; in [5], > 100 µM; in assay [6] it was 13.6 µM. For the same compound, the TGI in assay [7] is 32.7 µM; in [8], 19.1 µM; in assay [9], > 100 µM.
Regarding `Cc1ccc(-c2csc(NC(=O)N3CCN(c4cc5c(cc4F)c(=O)c(C(=O)O)cn5C4CC4)CC3)n2)cc1`, the GI50 in assay [1] was 0.572 µM; in [2], 0.307 µM; in assay [3], 0.484 µM; in [4], 0.431 µM; in assay [5] it was 0.307 µM; in assay [6] it was 0.362 µM. Further, the GI50 is 1.1 µM in assay [7], 2.06 µM in assay [8] and 1.9 µM in assay [9]. The TGI in [1] is 9.16 µM; in assay [2], 4.22 µM; in assay [3], > 100 µM; in assay [4], 3.91 µM; in [5], > 100 µM; in assay [6], > 100 µM. The TGI in [7] is 5.67 µM; in assay [8], > 100 µM; in [9] it was > 100 µM.
